Patent US20230301981A1, “TLR7/8 ANTAGONISTS AND USES THEREOF” (Merck Patent GmbH, priority 2020, published 2023)
“And” between values parts separate entries of the source, which are not always exact repeats. Equal entries are not always repeated. Where two headings read alike, the source gives them in different places.

Biological target: T1, TLR9 (Mus musculus, UniProt Q9EQU3)
T1 construct: from tissue; host or cells: primary splenocytes from C57BL-6/N mouse spleen
T1 sequence (Q9EQU3 26-1032): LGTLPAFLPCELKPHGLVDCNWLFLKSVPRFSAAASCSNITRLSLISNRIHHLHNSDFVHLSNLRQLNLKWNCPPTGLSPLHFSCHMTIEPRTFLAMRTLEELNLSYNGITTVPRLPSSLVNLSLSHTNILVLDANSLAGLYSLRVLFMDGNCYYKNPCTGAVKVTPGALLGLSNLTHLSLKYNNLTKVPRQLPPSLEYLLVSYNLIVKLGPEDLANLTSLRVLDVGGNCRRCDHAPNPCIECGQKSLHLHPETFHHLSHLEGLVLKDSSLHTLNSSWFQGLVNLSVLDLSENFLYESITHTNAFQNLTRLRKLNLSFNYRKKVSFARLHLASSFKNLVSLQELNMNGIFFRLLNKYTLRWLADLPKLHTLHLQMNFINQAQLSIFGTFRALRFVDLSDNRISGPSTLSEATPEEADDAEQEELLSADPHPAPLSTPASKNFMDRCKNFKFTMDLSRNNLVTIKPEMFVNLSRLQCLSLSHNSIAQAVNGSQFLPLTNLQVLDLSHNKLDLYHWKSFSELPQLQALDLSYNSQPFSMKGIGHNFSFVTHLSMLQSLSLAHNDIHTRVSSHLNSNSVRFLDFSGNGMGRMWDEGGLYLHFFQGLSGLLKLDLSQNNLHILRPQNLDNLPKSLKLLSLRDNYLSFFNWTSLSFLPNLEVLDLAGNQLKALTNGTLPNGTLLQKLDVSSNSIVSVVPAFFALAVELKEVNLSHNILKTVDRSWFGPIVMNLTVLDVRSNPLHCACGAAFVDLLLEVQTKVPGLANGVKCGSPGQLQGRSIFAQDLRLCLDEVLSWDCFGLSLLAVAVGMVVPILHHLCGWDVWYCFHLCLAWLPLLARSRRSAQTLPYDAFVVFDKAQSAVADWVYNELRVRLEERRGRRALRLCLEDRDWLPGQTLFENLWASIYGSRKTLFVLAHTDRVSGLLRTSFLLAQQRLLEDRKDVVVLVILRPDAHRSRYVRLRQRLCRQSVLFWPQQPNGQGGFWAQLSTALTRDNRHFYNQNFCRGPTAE
Assay: Mouse spleenocytes cell assay with CpG stimulation (IL6/TNFa ELISA)
Format: cell-based
Details: CpG 5 µM
Description: Mouse spleen from healthy, female C57BL-6/N mice (n=2) were taken out in 50 mL tubes with B-Cell medium and the experiment started directly. The spleen was grinded through a cell strainer by using the punch of a syringe into a 50 mL Falcon tube. Cell strainer and punch were flushed with appropriate amount of washing buffer to avoid cellloss. Then the spleenocytes were centrifuged for 10 min at 552 xg (1600 rpm), 4° C. The erythrocytes within the cell pellet were lysed by resuspending pellet in 1 ml ACK-lysing buffer (4° C.) and incubate for 1 minute at RT. Lysis was stopped by filling up to 50 ml with washing buffer and centrifuged for 10 min at 552 xg (1600 rpm), 4° C. Cells were washed in B-cell Media (IMDM + 25 mM HEPES + 10%FCS + pen/strep + NEAA 10 nM + Sodium Pyrovat 100 nM, β-Mercaptoethanol 50 nM), counted and seeded in a density of 148500 cells per well in a 96 well MTP (135µl of 1,1×106c/ml). The cells were pre-treated with antimalarials (15 µL, in different concentrations according to dose-response curve ranging from 100 pM-50 µM)) for 30 min, at 37° C., 5% CO2, followed by TLR⅞ stimulation with R848 (15 µl, final concentration of 1 µM) or a TLR9 stimulation with CpG (15 µl, final concentration of 5 µM) and incubated at 37° C., 5% CO2 for 18 - 24 hours.
Supernatants were collected and transferred into a 96 well round bottom MTP and stored at -20° C. until ELISA formouse IL6 and mouse TNFa were performed. Plates were read directly after assay on an Envision Multiplate reader. Results were analyzed with GraphPadPrism V8.0. Plot the calculated amount of produced IL6 or TNFa in pg/ml on y-axis and the concentration of each MSC concentration at half logarhythmic scaling on the x-axis to achieve a dose-response curve. Determine IC50 values using Graph Pad Prism analysis software (Transform Y values using “X=Log(X) and log inhibitor vs. response; Variable slope (four parameters).

[1] = IL6 readout, read-out: IC50 TLR9 (IL6 readout) mouse spleenocytes (n=2)
[2] = TNF readout, read-out: IC50 TLR9 (TNF readout) mouse spleenocytes (n=2)

SMILES | IC50 [1] | IC50 [2] | IC50 TLR9 (TNF readout) mouse spleenocytes (n=2) (TNF readout)
COc1ccc2nc3cc(Cl)ccc3c(Nc3cc(CN4CCCC4)c(O)c(CN4CCCC4)c3)c2n1 [Compound 1, Pyronaridine] | 14 nM and 35 nM | 21 nM and 140 nM | –
CCN(CCO)CCCC(C)Nc1ccnc2cc(Cl)ccc12 (centres unmarked) [HYDROXY-CHLOROQUINE HCQ, hydroxychloroquine] | 15400 nM and 1700 nM | 11500 nM | no suppr
